Results: the supplement of paper PMC10307832

Experiments:
Experiment in all cases: relative viability (nuclei count vs DMSO), 5 days (fraction); higher = more cells survive
Vandetanib + Luminespib = compound: COc1cc2/c(=N/c3ccc(Br)cc3F)nc[nH]c2cc1OCC1CCN(C)CC1 [Vandetanib] + CCNC(=O)c1noc(-c2cc(C(C)C)c(O)cc2O)c1-c1ccc(CN2CCOCC2)cc1 [Luminespib] (partner 0.01 µM)
Procedure, shortened: (§1)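 One day after seeding in 1536-well plates, lung cancer cell lines were dosed by pin tool. Dosing was either single-drug or a fixed anchor-drug dose plus five library-drug doses (not always all listed) in √10 steps. After 5 days, nuclei were stained in one fix-and-stain step and counted on 4× images, and relative viability is the nuclei count of treated wells over that of vehicle wells, given as the median of duplicate plates.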

Vandetanib + Trametinib = compound: COc1cc2/c(=N/c3ccc(Br)cc3F)nc[nH]c2cc1OCC1CCN(C)CC1 [Vandetanib] + CC(=O)Nc1cccc(-n2c(=O)n(C3CC3)c(=O)c3c(Nc4ccc(I)cc4F)n(C)c(=O)c(C)c32)c1 [Trametinib] (partner 0.02 µM)
Procedure, shortened: as §1

CUDC-101 + OSI-027 = compound: C#Cc1cccc(Nc2ncnc3cc(OC)c(OCCCCCCC(=O)NO)cc23)c1 [CUDC-101] + COc1cccc2cc(-c3nc([C@H]4CC[C@H](C(=O)O)CC4)n4ncnc(N)c34)[nH]c12 [OSI-027] (partner 0.5 µM)
Procedure, shortened: as §1

NVP-TAE684 + Vorinostat = compound: COc1cc(N2CCC(N3CCN(C)CC3)CC2)ccc1Nc1ncc(Cl)c(Nc2ccccc2S(=O)(=O)C(C)C)n1 [NVP-TAE684] + O=C(CCCCCCC(=O)Nc1ccccc1)NO [Vorinostat] (partner 1 µM)
Procedure, shortened: as §1

NCI-H322M
relative viability (Vandetanib + Luminespib; first compound 0.02 µM): 0.805
relative viability (Vandetanib + Luminespib; first compound 0.06325 µM): 0.8
relative viability (Vandetanib + Luminespib; first compound 0.2 µM): 0.889
relative viability (Vandetanib + Luminespib; first compound 0.6325 µM): 0.834
relative viability (Vandetanib + Luminespib; first compound 2 µM): 0.504
relative viability (Vandetanib + Trametinib; first compound 0.02 µM): 0.513
relative viability (Vandetanib + Trametinib; first compound 0.06325 µM): 0.476
relative viability (Vandetanib + Trametinib; first compound 0.2 µM): 0.516
relative viability (Vandetanib + Trametinib; first compound 0.6325 µM): 0.55
relative viability (Vandetanib + Trametinib; first compound 2 µM): 0.486
relative viability (CUDC-101 + OSI-027; first compound 0.01 µM): 0.679
relative viability (CUDC-101 + OSI-027; first compound 0.03162 µM): 0.555
relative viability (CUDC-101 + OSI-027; first compound 0.1 µM): 0.518
relative viability (CUDC-101 + OSI-027; first compound 0.3162 µM): 0.417
relative viability (CUDC-101 + OSI-027; first compound 1 µM): 0.308
relative viability (NVP-TAE684 + Vorinostat; first compound 0.2 µM): 0.858
relative viability (NVP-TAE684 + Vorinostat; first compound 0.6325 µM): 0.811
relative viability (NVP-TAE684 + Vorinostat; first compound 2 µM): 0.565

SK-MES-1
relative viability (Vandetanib + Luminespib; first compound 0.02 µM): 0.788
relative viability (Vandetanib + Luminespib; first compound 0.06325 µM): 0.506
relative viability (Vandetanib + Luminespib; first compound 0.2 µM): 0.758
relative viability (Vandetanib + Luminespib; first compound 0.6325 µM): 0.594
relative viability (Vandetanib + Luminespib; first compound 2 µM): 0.388
relative viability (Vandetanib + Trametinib; first compound 0.02 µM): 0.593
relative viability (Vandetanib + Trametinib; first compound 0.06325 µM): 0.464
relative viability (Vandetanib + Trametinib; first compound 0.2 µM): 0.304
relative viability (Vandetanib + Trametinib; first compound 0.6325 µM): 0.405
relative viability (Vandetanib + Trametinib; first compound 2 µM): 0.357
relative viability (CUDC-101 + OSI-027; first compound 0.01 µM): 0.604
relative viability (CUDC-101 + OSI-027; first compound 0.03162 µM): 0.601
relative viability (CUDC-101 + OSI-027; first compound 0.1 µM): 0.673
relative viability (CUDC-101 + OSI-027; first compound 0.3162 µM): 0.656
relative viability (CUDC-101 + OSI-027; first compound 1 µM): 0.381
relative viability (NVP-TAE684 + Vorinostat; first compound 0.2 µM): 0.977
relative viability (NVP-TAE684 + Vorinostat; first compound 0.6325 µM): 1.09
relative viability (NVP-TAE684 + Vorinostat; first compound 2 µM): 0.88

NCI-H1355
relative viability (Vandetanib + Luminespib; first compound 0.02 µM): 0.618
relative viability (Vandetanib + Luminespib; first compound 0.06325 µM): 0.731
relative viability (Vandetanib + Luminespib; first compound 0.2 µM): 0.838
relative viability (Vandetanib + Luminespib; first compound 0.6325 µM): 0.685
relative viability (Vandetanib + Luminespib; first compound 2 µM): 0.698
relative viability (Vandetanib + Trametinib; first compound 0.02 µM): 0.412
relative viability (Vandetanib + Trametinib; first compound 0.06325 µM): 0.426
relative viability (Vandetanib + Trametinib; first compound 0.2 µM): 0.438
relative viability (Vandetanib + Trametinib; first compound 0.6325 µM): 0.465
relative viability (Vandetanib + Trametinib; first compound 2 µM): 0.402
relative viability (CUDC-101 + OSI-027; first compound 0.01 µM): 0.393
relative viability (CUDC-101 + OSI-027; first compound 0.03162 µM): 0.385
relative viability (CUDC-101 + OSI-027; first compound 0.1 µM): 0.411
relative viability (CUDC-101 + OSI-027; first compound 0.3162 µM): 0.416
relative viability (CUDC-101 + OSI-027; first compound 1 µM): 0.309
relative viability (NVP-TAE684 + Vorinostat; first compound 0.2 µM): 0.561
relative viability (NVP-TAE684 + Vorinostat; first compound 0.6325 µM): 0.605
relative viability (NVP-TAE684 + Vorinostat; first compound 2 µM): 0.327

ChaGo-K-1
relative viability (Vandetanib + Luminespib; first compound 0.02 µM): 0.633
relative viability (Vandetanib + Luminespib; first compound 0.06325 µM): 0.593
relative viability (Vandetanib + Luminespib; first compound 0.2 µM): 0.616
relative viability (Vandetanib + Luminespib; first compound 0.6325 µM): 0.59
relative viability (Vandetanib + Luminespib; first compound 2 µM): 0.507
relative viability (Vandetanib + Trametinib; first compound 0.02 µM): 0.878
relative viability (Vandetanib + Trametinib; first compound 0.06325 µM): 0.87
relative viability (Vandetanib + Trametinib; first compound 0.2 µM): 0.253
relative viability (Vandetanib + Trametinib; first compound 0.6325 µM): 0.929
relative viability (Vandetanib + Trametinib; first compound 2 µM): 0.866
relative viability (CUDC-101 + OSI-027; first compound 0.01 µM): 0.527
relative viability (CUDC-101 + OSI-027; first compound 0.03162 µM): 0.579
relative viability (CUDC-101 + OSI-027; first compound 0.1 µM): 0.541
relative viability (CUDC-101 + OSI-027; first compound 0.3162 µM): 0.538
relative viability (CUDC-101 + OSI-027; first compound 1 µM): 0.43
relative viability (NVP-TAE684 + Vorinostat; first compound 0.2 µM): 0.786
relative viability (NVP-TAE684 + Vorinostat; first compound 0.6325 µM): 0.691
relative viability (NVP-TAE684 + Vorinostat; first compound 2 µM): 0.518

NCI-H2126
relative viability (Vandetanib + Luminespib; first compound 0.02 µM): 0.882
relative viability (Vandetanib + Luminespib; first compound 0.06325 µM): 0.855
relative viability (Vandetanib + Luminespib; first compound 0.2 µM): 0.888
relative viability (Vandetanib + Luminespib; first compound 0.6325 µM): 0.914
relative viability (Vandetanib + Luminespib; first compound 2 µM): 0.687
relative viability (Vandetanib + Trametinib; first compound 0.02 µM): 0.58
relative viability (Vandetanib + Trametinib; first compound 0.06325 µM): 0.546
relative viability (Vandetanib + Trametinib; first compound 0.2 µM): 0.556
relative viability (Vandetanib + Trametinib; first compound 0.6325 µM): 0.502
relative viability (Vandetanib + Trametinib; first compound 2 µM): 0.504
relative viability (CUDC-101 + OSI-027; first compound 0.01 µM): 0.678
relative viability (CUDC-101 + OSI-027; first compound 0.03162 µM): 0.659
relative viability (CUDC-101 + OSI-027; first compound 0.1 µM): 0.662
relative viability (CUDC-101 + OSI-027; first compound 0.3162 µM): 0.668
relative viability (CUDC-101 + OSI-027; first compound 1 µM): 0.508
relative viability (NVP-TAE684 + Vorinostat; first compound 0.2 µM): 0.808
relative viability (NVP-TAE684 + Vorinostat; first compound 0.6325 µM): 0.732
relative viability (NVP-TAE684 + Vorinostat; first compound 2 µM): 0.443

NCI-H520
relative viability (Vandetanib + Luminespib; first compound 0.02 µM): 0.206
relative viability (Vandetanib + Luminespib; first compound 0.06325 µM): 0.218
relative viability (Vandetanib + Luminespib; first compound 0.2 µM): 0.222
relative viability (Vandetanib + Luminespib; first compound 0.6325 µM): 0.253
relative viability (Vandetanib + Luminespib; first compound 2 µM): 0.209
relative viability (Vandetanib + Trametinib; first compound 0.02 µM): 0.627
relative viability (Vandetanib + Trametinib; first compound 0.06325 µM): 0.642
relative viability (Vandetanib + Trametinib; first compound 0.2 µM): 0.577
relative viability (Vandetanib + Trametinib; first compound 0.6325 µM): 0.687
relative viability (Vandetanib + Trametinib; first compound 2 µM): 0.68
relative viability (CUDC-101 + OSI-027; first compound 0.01 µM): 0.218
relative viability (CUDC-101 + OSI-027; first compound 0.03162 µM): 0.281
relative viability (CUDC-101 + OSI-027; first compound 0.1 µM): 0.327
relative viability (CUDC-101 + OSI-027; first compound 0.3162 µM): 0.256
relative viability (CUDC-101 + OSI-027; first compound 1 µM): 0.191
relative viability (NVP-TAE684 + Vorinostat; first compound 0.2 µM): 0.776
relative viability (NVP-TAE684 + Vorinostat; first compound 0.6325 µM): 0.681
relative viability (NVP-TAE684 + Vorinostat; first compound 2 µM): 0.313

NCI-H1755
relative viability (Vandetanib + Luminespib; first compound 0.02 µM): 0.396
relative viability (Vandetanib + Luminespib; first compound 0.06325 µM): 0.43
relative viability (Vandetanib + Luminespib; first compound 0.2 µM): 0.409
relative viability (Vandetanib + Luminespib; first compound 0.6325 µM): 0.783
relative viability (Vandetanib + Luminespib; first compound 2 µM): 0.353
relative viability (Vandetanib + Trametinib; first compound 0.02 µM): 0.749
relative viability (Vandetanib + Trametinib; first compound 0.06325 µM): 0.731
relative viability (Vandetanib + Trametinib; first compound 0.2 µM): 0.794
relative viability (Vandetanib + Trametinib; first compound 0.6325 µM): 0.749
relative viability (Vandetanib + Trametinib; first compound 2 µM): 0.751
relative viability (CUDC-101 + OSI-027; first compound 0.01 µM): 0.624
relative viability (CUDC-101 + OSI-027; first compound 0.03162 µM): 0.729
relative viability (CUDC-101 + OSI-027; first compound 0.1 µM): 0.794
relative viability (CUDC-101 + OSI-027; first compound 0.3162 µM): 0.781
relative viability (CUDC-101 + OSI-027; first compound 1 µM): 0.571
relative viability (NVP-TAE684 + Vorinostat; first compound 0.2 µM): 0.768
relative viability (NVP-TAE684 + Vorinostat; first compound 0.6325 µM): 0.744
relative viability (NVP-TAE684 + Vorinostat; first compound 2 µM): 0.635
